Assay results: patent US8415351B2 (priority 2007, dated 2013)
Like-named read-outs stand apart in the source and are kept apart here.

How the values were obtained:
[1] = target: T1, HCV polymerase 1A (Δ21 NS5B, H77) (Hepatitis C virus genotype 1a, UniProt P27958); test: biochemical
T1 construct: 20 to 50 nM Δ21 NS5B
Experimental: (§1) HCV Polymerase Inhibition Assay
The reaction was initiated by the addition of 20 μM CTP, 20 μM ATP, 1 μM ^3H-UTP (10 mCi/umol), 5 nM template RNA and 0.1 U/μl RNase inhibitor (RNasin, Promega), and allowed to proceed for 2 to 4 h at room temperature. Reaction volume was 50 μl. The reaction was terminated by the addition of 1 volume of 4 mM spermine in 10 mM Tris-Cl pH 8.0, 1 mM EDTA. After incubation for at least 15 min at room temperature, the precipitated RNA was captured by filtering through a GF/B filter (Millipore) in a 96 well format. The filter plate was washed three times with 200 μl each of 2 mM spermine, 10 mM Tris-Cl pH 8.0, 1 mM EDTA, and 2 times with ethanol. After air-drying, 30 μl of Microscint 20 scintillation cocktail (Packard) was added to each well, and the retained cpm were determined by scintillation counting. […] Retained cpm were plotted vs. inhibitor concentration and fit to equation 1 using non-linear regression (ref. 1) to obtain the IC50 values: Retained cpm=A[sqrt{(IC50+It−Et)^2+4*IC50*Et}−(IC50+It−Et)]
Ref. Morrison, J. F. and S. R. Stone. […] Approaches to the study and analysis of the inhibition of enzymes by slow- and tight-binding inhibitors. Comments Mol. Cell. Biophys.
The sequence of the template RNA used was: 5′-[…]

[2] = target: T2, HCV polymerase 1B (Δ21 NS5B, BK) (Hepatitis C virus genotype 1b, UniProt P26663); test: biochemical
T2 construct: 20 to 50 nM Δ21 NS5B
Experimental: as §1
Either two-fold serial dilutions (fractional inhibition assay) or a narrower range of dilutions spanning the IC50 of the inhibitor (tight binding assay) of the inhibitors were incubated with 20 mM Tris-Cl pH 7.4, 2 mM MnCl2, 1 mM dithiothreitol, 1 mM ethylene diamine tetraacetic acid (EDTA), 60 to 125 μM GTP and 20 to 50 nM Δ21 NS5B (HCV Strain 1B (BK, Genbank accession number M58335, or H77, Genbank accession number AF011751)) for 15 min at room temperature. The reaction was initiated by the addition of 20 μM CTP, 20 μM ATP, 1 μM ^3H-UTP (10 mCi/umol), 5 nM template RNA and 0.1 U/μl RNase inhibitor (RNasin, Promega), and allowed to proceed for 2 to 4 h at room temperature. Reaction volume was 50 μl. The reaction was terminated by the addition of 1 volume of 4 mM spermine in 10 mM Tris-Cl pH 8.0, 1 mM EDTA. After incubation for at least 15 min at room temperature, the precipitated RNA was captured by filtering through a GF/B filter (Millipore) in a 96 well format. The filter plate was washed three times with 200 μl each of 2 mM spermine, 10 mM Tris-Cl pH 8.0, 1 mM EDTA, and 2 times with ethanol. After air-drying, 30 μl of Microscint 20 scintillation cocktail (Packard) was added to each well, and the retained cpm were determined by scintillation counting. […] Retained cpm were plotted vs. inhibitor concentration and fit to equation 1 using non-linear regression (ref. 1) to obtain the IC50 values: Retained cpm=A[sqrt{(IC50+It−Et)^2+4*IC50*Et}−(IC50+It−Et)]
Ref. Morrison, J. F. and S. R. Stone. 1985. Approaches to the study and analysis of the inhibition of enzymes by slow- and tight-binding inhibitors. Comments Mol. Cell. Biophys. 2: 347-368.
The sequence of the template RNA used was: 5′-[…] […] […] […] […] […] […] […] […] […] […] […] […] […] […] […] […]-3′ (SEQ ID NO: 1)

T2 sequence (P26663 2420-2989, stated change not applied): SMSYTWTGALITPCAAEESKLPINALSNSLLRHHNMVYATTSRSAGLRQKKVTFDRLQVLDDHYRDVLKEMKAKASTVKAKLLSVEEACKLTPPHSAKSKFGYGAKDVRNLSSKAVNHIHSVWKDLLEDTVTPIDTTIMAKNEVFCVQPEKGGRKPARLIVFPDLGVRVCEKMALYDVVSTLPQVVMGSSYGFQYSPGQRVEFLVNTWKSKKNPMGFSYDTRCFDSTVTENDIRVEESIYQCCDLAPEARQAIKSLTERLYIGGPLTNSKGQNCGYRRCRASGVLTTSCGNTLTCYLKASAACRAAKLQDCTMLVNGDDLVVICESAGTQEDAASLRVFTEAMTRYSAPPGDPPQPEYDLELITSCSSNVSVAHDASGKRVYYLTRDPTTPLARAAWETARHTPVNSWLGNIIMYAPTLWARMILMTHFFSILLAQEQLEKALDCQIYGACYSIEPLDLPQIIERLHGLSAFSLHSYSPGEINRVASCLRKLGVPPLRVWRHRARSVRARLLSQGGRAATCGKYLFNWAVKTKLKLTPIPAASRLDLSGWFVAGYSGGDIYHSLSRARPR
T1 sequence (P27958 2421-2990, stated change not applied): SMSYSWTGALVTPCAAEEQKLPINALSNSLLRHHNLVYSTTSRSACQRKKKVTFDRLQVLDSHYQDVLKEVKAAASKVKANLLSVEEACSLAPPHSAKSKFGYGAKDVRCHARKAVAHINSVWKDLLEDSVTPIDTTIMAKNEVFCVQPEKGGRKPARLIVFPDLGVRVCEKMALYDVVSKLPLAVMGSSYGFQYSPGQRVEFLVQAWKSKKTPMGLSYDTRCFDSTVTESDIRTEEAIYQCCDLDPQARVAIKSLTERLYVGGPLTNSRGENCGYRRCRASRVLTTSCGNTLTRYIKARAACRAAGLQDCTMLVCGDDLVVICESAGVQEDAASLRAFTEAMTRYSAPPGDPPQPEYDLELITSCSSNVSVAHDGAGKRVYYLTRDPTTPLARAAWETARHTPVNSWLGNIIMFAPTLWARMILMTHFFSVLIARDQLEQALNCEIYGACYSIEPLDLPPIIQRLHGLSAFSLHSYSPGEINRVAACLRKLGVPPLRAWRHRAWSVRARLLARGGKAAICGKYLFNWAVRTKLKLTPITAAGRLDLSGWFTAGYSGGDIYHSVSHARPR

Row | SMILES | IC50 ([1]; IC50 1a) | IC50 [2] | IC50 ([1]; read-out: IC50 1a) | IC50 ([2]; HCV polymerase 1b, read-out: IC50 1b)
1 | COc1c(C(=O)Nc2ccc(N(CC3CC3)S(C)(=O)=O)cc2)cc(N2CCC(=O)NC2=O)cc1C(C)(C)C [IA-L3-1.66, 3-tert-butyl-N-(4-(N-(cyclopropylmethyl)methylsulfonamido)phenyl)-5-(2,4-dioxotetrahydropyrimidin-1(2H)-yl)-2-methoxybenzamide] | > 1000 nM | > 1000 nM |  | 
2 | COc1c(C(=O)Nc2ccc(N(C(=O)C(C)C)S(C)(=O)=O)cc2)cc(N2CCC(=O)NC2=O)cc1C(C)(C)C [IA-L3-1.72, 3-tert-butyl-5-(2,4-dioxotetrahydropyrimidin-1(2H)-yl)-2-methoxy-N-(4-(N-(methylsulfonyl)isobutyramido)phenyl)benzamide] | > 1000 nM | > 1000 nM |  | 
3 | COC(=O)N(c1ccc(NC(=O)c2cc(N3CCC(=O)NC3=O)cc(C(C)(C)C)c2OC)cc1)S(C)(=O)=O [IA-L3-1.73, Methyl 4-(3-tert-butyl-5-(2,4-dioxotetrahydropyrimidin-1(2H)-yl)-2-methoxybenzamido) phenyl(methylsulfonyl)carbamate] | > 1000 nM | > 1000 nM |  | 
4 | CCOC(=O)N(c1ccc(NC(=O)c2cc(N3CCC(=O)NC3=O)cc(C(C)(C)C)c2OC)cc1)S(C)(=O)=O [IA-L3-1.74, Ethyl 4-(3-tert-butyl-5-(2,4-dioxotetrahydropyrimidin-1(2H)-yl)-2-methoxybenzamido)-phenyl(methylsulfonyl)carbamate] | > 1000 nM | > 1000 nM |  | 
5 | COc1c(C(=O)Nc2ccc(N(C(=O)OCC(C)C)S(C)(=O)=O)cc2)cc(N2CCC(=O)NC2=O)cc1C(C)(C)C [IA-L3-1.76, Isobutyl 4-(3-tert-butyl-5-(2,4-dioxotetrahydropyrimidin-1(2H)-yl)-2-methoxybenzamido) phenyl(methylsulfonyl)carbamate] | > 1000 nM | > 1000 nM |  | 
6 | COCCOC(=O)N(c1ccc(NC(=O)c2cc(N3CCC(=O)NC3=O)cc(C(C)(C)C)c2OC)cc1)S(C)(=O)=O [IA-L3-1.77, 2-methoxyethyl 4-(3-tert-butyl-5-(2,4-dioxotetrahydropyrimidin-1(2H)-yl)-2-methoxybenzamido)phenyl(methylsulfonyl)carbamate] | > 1000 nM | > 1000 nM |  | 
7 | COc1c(C(=O)Nc2ccc(S(C)(=O)=O)cc2)cc(N2CCC(=O)NC2=O)cc1C(C)(C)C [IA-L3-1.78, 3-tert-butyl-5-(2,4-dioxotetrahydropyrimidin-1(2H)-yl)-2-methoxy-N-(4-(methylsulfonyl)phenyl)benzamide] | > 1000 nM | > 1000 nM |  | 
8 | COc1c(C(=O)Nc2ccccc2S(C)(=O)=O)cc(N2CCC(=O)NC2=O)cc1C(C)(C)C [IA-L3-1.79, 3-tert-butyl-5-(2,4-dioxotetrahydropyrimidin-1(2H)-yl)-2-methoxy-N-(2-(methylsulfonyl)phenyl)benzamide] | > 1000 nM | > 1000 nM |  | 
9 | COc1c(C(=O)Nc2ccccc2S(N)(=O)=O)cc(N2CCC(=O)NC2=O)cc1C(C)(C)C [IA-L3-1.80, 3-tert-butyl-5-(2,4-dioxotetrahydropyrimidin-1(2H)-yl)-2-methoxy-N-(2-sulfamoylphenyl)benzamide] | > 1000 nM | > 1000 nM |  | 
10 | CCCC(=O)OCN1C(=O)CCN(c2cc(C(=O)Nc3ccc(N(COC(=O)CCC)S(C)(=O)=O)cc3)c(OC)c(C(C)(C)C)c2)C1=O [IA-L3-1.88, (N-(4-(3-tert-butyl-5-(3-(butyryloxymethyl)-2,4-dioxotetrahydropyrimidin-1(2H)-yl)-2-methoxybenzamido)phenyl)methylsulfonamido)methyl butyrate] | > 1000 nM | > 1000 nM |  | 
11 | COc1c(C(=O)Nc2ccc(N(S(C)(=O)=O)S(C)(=O)=O)cn2)cc(N2CCC(=O)NC2=O)cc1C(C)(C)C [IA-L3-1.101, 3-tert-butyl-5-(2,4-dioxotetrahydropyrimidin-1(2H)-yl)-2-methoxy-N-(5-(N-(methylsulfonyl)methylsulfonamido)pyridin-2-yl)benzamide] | > 1000 nM | > 1000 nM |  | 
12 | C=CCN(c1ccc(NC(=O)c2cc(N3CCC(=O)NC3=O)cc(C(C)(C)C)c2OC)cc1)S(C)(=O)=O [IA-L3-1.108, N-(4-(N-allylmethylsulfonamido)phenyl)-3-tert-butyl-5-(2,4-dioxotetrahydropyrimidin-1(2H)-yl)-2-methoxybenzamide] | > 1000 nM | > 1000 nM |  | 
13 | CS(=O)(=O)Nc1ccc(NC(=O)c2cc(N3CCC(=O)NC3=O)ccc2O)cc1 [IA-L3-1.114, 5-(2,4-dioxotetrahydropyrimidin-1(2H)-yl)-2-hydroxy-N-(4-(methylsulfonamido)phenyl)benzamide] | > 1000 nM | > 1000 nM |  | 
14 | COc1c(C(=O)Nc2ccc(N(COC(=O)C(C)(C)C)S(C)(=O)=O)cc2)cc(N2CCC(=O)N(COC(=O)C(C)(C)C)C2=O)cc1C(C)(C)C [IA-L3-1.116, (3-(3-tert-butyl-4-methoxy-5-(4-(N-(pivaloyloxymethyl)methylsulfonamido)phenylcarbamoyl)phenyl)-2,6-dioxotetrahydropyrimidin-1(2H)-yl)methyl pivalate] | > 1000 nM | > 1000 nM |  | 
15 | COc1c(C(=O)Nc2ccc(NS(C)(=O)=O)cc2)cc(N2CCC(=O)N(CC3OCCO3)C2=O)cc1C(C)(C)C [IA-L3-1.117, 5-(3-((1,3-dioxolan-2-yl)methyl)-2,4-dioxotetrahydropyrimidin-1(2H)-yl)-3-tert-butyl-2-methoxy-N-(4-(methylsulfonamido)phenyl)benzamide] | > 1000 nM | > 1000 nM |  | 
16 | C=CCN1C(=O)CCN(c2cc(C(=O)Nc3ccc(N(CC=C)S(C)(=O)=O)cc3)c(OC)c(C(C)(C)C)c2)C1=O [IA-L3-1.118, 5-(3-allyl-2,4-dioxotetrahydropyrimidin-1(2H)-yl)-N-(4-(N-allylmethylsulfonamido)phenyl)-3-tert-butyl-2-methoxybenzamide] | > 1000 nM | > 1000 nM |  | 
17 | COc1c(C(=O)Nc2ccc3c(c2)CS(=O)(=O)C3)cc(N2CCC(=O)NC2=O)cc1C(C)(C)C [IA-L3-2.3, 3-tert-butyl-N-(2,2-dioxo-1,3-dihydrobenzo[c]thiophen-5-yl)-5-(2,4-dioxotetrahydropyrimidin-1(2H)-yl)-2-methoxybenzamide] | > 1000 nM | > 1000 nM |  | 
18 | CC(C)(C)c1cc(N2CCC(=O)NC2=O)cc(NC(=O)c2ccccc2)c1O [IA-L4-1.2, N-(3-tert-butyl-5-(2,4-dioxotetrahydropyrimidin-1(2H)-yl)-2-hydroxyphenyl)benzamide] | > 1000 nM | > 1000 nM |  | 
19 | CC(C)(C)c1cc(N2CCC(=O)NC2=O)cc(NC(=O)c2ccc([N+](=O)[O-])cc2)c1O [IA-L4-1.5, N-(3-tert-butyl-5-(2,4-dioxotetrahydropyrimidin-1(2H)-yl)-2-hydroxyphenyl)-4-nitro benzamide] |  |  | > 1000 nM | > 1000 nM
20 | CC(C)(C)c1cc(N2CCC(=O)NC2=O)cc(NC(=O)c2ccc(N)cc2)c1O [IA-L4-1.6, 4-amino-N-(3-tert-butyl-5-(2,4-dioxotetrahydropyrimidin-1(2H)-yl)-2-hydroxyphenyl)benzamide] | > 1000 nM | > 1000 nM |  | 
21 | COc1c(NC(=O)c2ccc(CS(C)(=O)=O)cc2)cc(N2CCC(=O)NC2=O)cc1C(C)(C)C [IA-L4-1.10, N-(3-tert-butyl-5-(2,4-dioxotetrahydropyrimidin-1(2H)-yl)-2-methoxyphenyl)-4-(methylsulfonylmethyl)benzamide] | > 1000 nM | > 1000 nM |  | 
22 | CC(C)(C)OC(=O)NC1CCN(Cc2cc(N3CCC(=O)NC3=O)cc(C(C)(C)C)c2O)CC1 [IA-L5-1-1.1, {1-[3-tert-butyl-5-(2,4-dioxo-tetrahydro-pyrimidin-1-yl)-2-hydroxy-benzyl]-piperidin-4-yl}-carbamic acid tert-butyl ester] | > 1000 nM | > 1000 nM |  | 
